Laboratory results as given in patent publication US12105023B2, “Multi-well plate readers and methods of their use” (QUELLTX, INC., priority 2021, dated 2024).
pIC50: −log10 of the molar value. Read-outs that look alike come from different tables or passages of the source.

How the values were obtained:
Type in all cases: cell-based
Nav1.8 = biological target: T1, Nav1.8 (Homo sapiens, UniProt Q9Y5Y9); test: Nav1.8 spiking HEK assay (optogenetic, 6-test pulse stimulation protocol)
T1 construct: expressed in transfected cells; host or cells: HEK cells co-expressing CheRiff-GFP and Kir2.1, with BeRST dye as the voltage sensor
T1 sequence (Q9Y5Y9 whole entry): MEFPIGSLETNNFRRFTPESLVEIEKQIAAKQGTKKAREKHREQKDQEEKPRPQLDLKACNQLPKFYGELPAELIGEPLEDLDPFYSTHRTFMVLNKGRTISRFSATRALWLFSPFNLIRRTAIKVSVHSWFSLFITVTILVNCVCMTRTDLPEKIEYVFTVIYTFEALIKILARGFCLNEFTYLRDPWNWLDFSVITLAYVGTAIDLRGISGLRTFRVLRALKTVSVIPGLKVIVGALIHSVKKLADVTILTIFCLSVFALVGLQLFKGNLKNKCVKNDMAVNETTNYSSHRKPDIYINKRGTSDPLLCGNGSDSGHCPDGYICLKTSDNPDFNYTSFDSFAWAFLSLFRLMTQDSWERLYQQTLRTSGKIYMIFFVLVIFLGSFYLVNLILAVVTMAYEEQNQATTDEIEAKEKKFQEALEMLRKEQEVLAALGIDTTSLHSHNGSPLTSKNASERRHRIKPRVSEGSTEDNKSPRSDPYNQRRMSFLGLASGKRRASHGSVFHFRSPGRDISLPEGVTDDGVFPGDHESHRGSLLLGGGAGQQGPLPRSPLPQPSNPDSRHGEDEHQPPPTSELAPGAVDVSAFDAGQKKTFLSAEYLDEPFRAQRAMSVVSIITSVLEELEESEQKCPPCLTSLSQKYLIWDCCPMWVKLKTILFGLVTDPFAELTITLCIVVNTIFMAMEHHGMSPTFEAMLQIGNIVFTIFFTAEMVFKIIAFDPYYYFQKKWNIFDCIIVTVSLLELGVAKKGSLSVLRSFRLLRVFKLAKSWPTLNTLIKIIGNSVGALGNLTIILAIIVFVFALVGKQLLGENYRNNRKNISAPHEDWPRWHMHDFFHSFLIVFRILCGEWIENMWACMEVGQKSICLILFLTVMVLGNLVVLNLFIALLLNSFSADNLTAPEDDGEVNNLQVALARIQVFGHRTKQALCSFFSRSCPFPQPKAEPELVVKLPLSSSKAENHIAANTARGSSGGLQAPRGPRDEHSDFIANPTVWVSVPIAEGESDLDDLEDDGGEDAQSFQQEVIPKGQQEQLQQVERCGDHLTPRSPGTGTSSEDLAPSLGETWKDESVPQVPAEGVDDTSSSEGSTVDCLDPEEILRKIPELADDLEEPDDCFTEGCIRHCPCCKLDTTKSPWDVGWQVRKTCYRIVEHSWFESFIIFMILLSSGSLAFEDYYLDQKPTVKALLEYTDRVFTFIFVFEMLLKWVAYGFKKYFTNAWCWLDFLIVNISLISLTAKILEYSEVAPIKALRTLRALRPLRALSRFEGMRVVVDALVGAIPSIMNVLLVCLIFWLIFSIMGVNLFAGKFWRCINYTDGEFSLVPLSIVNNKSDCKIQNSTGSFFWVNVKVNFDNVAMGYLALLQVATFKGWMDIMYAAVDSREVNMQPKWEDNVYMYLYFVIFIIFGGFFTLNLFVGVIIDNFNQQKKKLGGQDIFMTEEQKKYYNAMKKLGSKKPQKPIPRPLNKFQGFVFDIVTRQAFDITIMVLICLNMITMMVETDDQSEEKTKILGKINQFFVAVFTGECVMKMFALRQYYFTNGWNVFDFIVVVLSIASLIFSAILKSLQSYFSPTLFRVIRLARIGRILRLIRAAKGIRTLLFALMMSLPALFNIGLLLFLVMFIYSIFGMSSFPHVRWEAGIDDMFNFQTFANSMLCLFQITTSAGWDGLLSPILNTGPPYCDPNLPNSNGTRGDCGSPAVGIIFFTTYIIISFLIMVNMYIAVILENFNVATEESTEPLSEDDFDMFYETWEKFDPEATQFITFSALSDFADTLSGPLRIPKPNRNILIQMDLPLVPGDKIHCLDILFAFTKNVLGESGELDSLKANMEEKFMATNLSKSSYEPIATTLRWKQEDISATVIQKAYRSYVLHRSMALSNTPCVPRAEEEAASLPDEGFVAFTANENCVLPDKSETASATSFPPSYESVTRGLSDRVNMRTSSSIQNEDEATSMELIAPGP

Nav1.7 = biological target: T2, Nav1.7 (Homo sapiens, UniProt Q15858); test: Nav1.7 spiking HEK assay
T2 construct: expressed in transfected cells; host or cells: HEK cells co-expressing CheRiff, Kir2.1 (lentiviral transduction) and a voltage reporter
T2 sequence (Q15858 whole entry): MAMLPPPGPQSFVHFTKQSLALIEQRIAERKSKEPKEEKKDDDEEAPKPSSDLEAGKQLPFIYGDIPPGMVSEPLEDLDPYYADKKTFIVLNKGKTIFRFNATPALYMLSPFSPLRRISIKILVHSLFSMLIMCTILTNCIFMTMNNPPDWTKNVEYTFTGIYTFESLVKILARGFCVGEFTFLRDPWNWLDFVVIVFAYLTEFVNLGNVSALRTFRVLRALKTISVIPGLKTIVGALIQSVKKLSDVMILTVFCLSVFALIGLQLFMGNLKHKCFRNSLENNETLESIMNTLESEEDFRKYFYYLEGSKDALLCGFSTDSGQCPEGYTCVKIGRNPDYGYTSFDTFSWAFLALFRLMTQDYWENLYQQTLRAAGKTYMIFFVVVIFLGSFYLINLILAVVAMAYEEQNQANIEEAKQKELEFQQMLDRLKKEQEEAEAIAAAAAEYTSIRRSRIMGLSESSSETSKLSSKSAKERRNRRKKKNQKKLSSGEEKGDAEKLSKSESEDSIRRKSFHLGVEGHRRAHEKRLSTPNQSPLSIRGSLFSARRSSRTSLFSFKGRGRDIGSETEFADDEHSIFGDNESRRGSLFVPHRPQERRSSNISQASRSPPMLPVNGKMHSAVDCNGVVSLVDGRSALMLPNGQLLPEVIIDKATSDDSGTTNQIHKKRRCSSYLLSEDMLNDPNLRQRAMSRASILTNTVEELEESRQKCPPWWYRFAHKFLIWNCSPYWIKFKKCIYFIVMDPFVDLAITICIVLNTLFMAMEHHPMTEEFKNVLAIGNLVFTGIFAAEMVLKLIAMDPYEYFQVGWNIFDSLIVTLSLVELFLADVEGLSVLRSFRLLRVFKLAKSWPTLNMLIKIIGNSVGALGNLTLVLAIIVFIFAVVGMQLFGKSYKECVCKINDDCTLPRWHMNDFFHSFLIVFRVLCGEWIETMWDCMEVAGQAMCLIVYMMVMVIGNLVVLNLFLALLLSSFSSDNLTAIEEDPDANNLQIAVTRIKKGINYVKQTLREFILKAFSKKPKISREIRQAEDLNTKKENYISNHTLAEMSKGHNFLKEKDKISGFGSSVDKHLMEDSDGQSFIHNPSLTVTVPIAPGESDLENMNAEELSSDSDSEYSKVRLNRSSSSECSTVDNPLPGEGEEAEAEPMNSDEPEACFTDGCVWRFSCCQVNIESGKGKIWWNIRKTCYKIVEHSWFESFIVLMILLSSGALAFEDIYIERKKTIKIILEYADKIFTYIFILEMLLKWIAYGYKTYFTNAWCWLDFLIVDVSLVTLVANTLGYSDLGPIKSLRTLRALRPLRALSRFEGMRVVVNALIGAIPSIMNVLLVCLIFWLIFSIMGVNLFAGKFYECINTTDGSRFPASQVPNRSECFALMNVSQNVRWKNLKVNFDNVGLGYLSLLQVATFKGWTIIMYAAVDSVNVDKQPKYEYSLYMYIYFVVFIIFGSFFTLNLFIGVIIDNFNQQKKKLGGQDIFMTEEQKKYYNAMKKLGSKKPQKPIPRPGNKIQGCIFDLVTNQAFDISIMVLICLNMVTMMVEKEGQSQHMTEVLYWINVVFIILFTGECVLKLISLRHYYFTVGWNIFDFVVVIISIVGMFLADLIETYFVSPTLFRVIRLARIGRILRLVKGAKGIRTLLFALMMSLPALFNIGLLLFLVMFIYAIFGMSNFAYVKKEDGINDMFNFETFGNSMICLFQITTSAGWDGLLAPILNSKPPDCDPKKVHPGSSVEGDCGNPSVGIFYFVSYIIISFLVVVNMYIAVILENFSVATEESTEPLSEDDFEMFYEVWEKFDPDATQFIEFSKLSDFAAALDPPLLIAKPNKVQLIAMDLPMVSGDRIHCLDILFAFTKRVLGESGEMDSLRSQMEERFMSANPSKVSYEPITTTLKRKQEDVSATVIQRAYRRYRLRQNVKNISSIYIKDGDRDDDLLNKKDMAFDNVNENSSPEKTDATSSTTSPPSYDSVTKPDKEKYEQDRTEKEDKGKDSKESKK

[1] = test system: IPSC-derived cardiomyocyte; test: Simultaneous voltage and calcium imaging in IPSC-derived cardiomyocytes; details: 10-test pulse blue stimulation protocol, 3 wells of each concentration, FIG. 41
From the text: A 24 objective plate reader of the invention was used to assay a 96-well plate that contained IPSC-derived cardiomyocyte expressing jRGECO1a calcium sensors, CheRiff actuators, and loaded with BeRST1 fluorescent voltage sensitive dye.
The line labeled “stim” indicates pulses of stimulating light transmitted by the plate reader to multiple wells of the 96-well plate, which caused actuation of CheRiff. This led to resulting changes in voltage and calcium ion concentrations in the cells. The resulting changes in voltage were reported by BeRST1, which was energized by red light transmitted from the plate reader. Calcium ion concentration was reported by jRGECO1, which was energized by yellow light. Thus, the plate reader was able to accurately stimulate an actuator and two reporters in multiple wells of a multi-well plate with three separate wavelengths of light. Moreover, the plate reader was able to simultaneously detect the levels of two separate emission wavelengths of light.
The voltage and calcium fluorescence waveforms in FIG. 40 show the average epoch of the 10-test pulse blue stimulation protocol.
Increasing concentration of Nifedipine altered both the voltage action potential waveform and calcium transients until it was completely extinguished at 0.3 uM.

Question: Which “test pulse preference of block (TP1 versus TP5)” value (Nav1.8) does the source give for NC1=N[C@H](O)[C@H]2[C@H]3O[C@]4(O)O[C@@H]([C@@H](O)[C@@]2(N1)[C@@H]4O)[C@]3(O)CO [TTX, Tetrodotoxin] here?
Answer: equivalently blocks TP1 and TP5

Question: And the “selectivity for Nav1.7” value (Nav1.7)?
Answer: more than 1,000 fold

Question: What does the source list for CNC(=O)c1ccc(-c2cc(Cl)cc(Cl)c2Cl)c(N)n1 [PF-01247324]?
Answer: pIC50 (Nav1.8; Nav1.8 spiking HEK assay, dose response curves, FIG. 43D, read-out: IC50, block of Nav1.8): 6.89; selectivity against Nav1.7 (Nav1.8; Nav1.8 versus Nav1.7 spiking HEK assays, FIG. 43D): 40 fold; test pulse preference of block (TP1 versus TP5) (Nav1.8; dose response curves at TP5 and TP1, FIG. 43C): preferentially blocks TP5; test pulse at which blocker is more effective (slope of repolarization) (Nav1.8; representative traces, 6-test pulse protocol, FIG. 43B): more effective after the long pulse (TP5)

Question: For COC(=O)C1=C(C)NC(C)=C(C(=O)OC)C1c1ccccc1[N+](=O)[O-] [Nifedipine], which “concentration at which voltage action potential waveform and calcium transients were completely extinguished” value [1] is on record?
Answer: 0.3 µM
